Consider 9 compounds from patent US10087178B2, “Substituted spiropyrido[1,2-a]pyrazine derivative and medicinal use thereof as HIV integrase inhibitor” (priority 2012, dated 2018).

Counter-ions that a name gives are not always drawn. Like-named read-outs stand apart in the source and are kept apart here.

The test system of the experiment is HIV-1 NL4-3 strain. As to the kind of experiment: Evaluation of antiviral activity: acute infection system of MT-4 cell with HIV-1 NL4-3 strain. In kind it is cell-based. Conditions: Human immunodeficiency virus 1, NL43, MT4, 120 h.
Setting [1] is: MT-4 cells infected with HIV-1 NL4-3 strain (MOI 0.05), cultured 5 days, Cell Titer-Glo, read-out: antiviral activity (EC50).

As for `CCN1C[C@@]2(C[C@H]2COC)n2cc(C(=O)NCc3cccc(Cl)c3F)c(=O)c(O)c2C1=O` [Example T30, (1S,2R)-N-(3-chloro-2-fluorobenzyl)-2′-ethyl-9′-hydroxy-2-(methoxymethyl)-1′,8′-dioxo-1′,2′,3′,8′-tetrahydrospiro[cyclopropane-1,4′-pyrido[1,2-a]pyrazine]-7′-carboxamide], the EC50 (usually the concentration that produces a half-maximal response) under setting [1] worked out at 4.4 nM. `CCO[C@H]1C[C@@]2(Cn3cc(C(=O)NCc4cccc(Cl)c4F)c(=O)c(O)c3C(=O)N2CC)C1` [Example S56, N-(3-chloro-2-fluorobenzyl)- trans-3-ethoxy-2′-ethyl-9′-hydroxy-1′,8′-dioxo-1′,2′,4′,8′-tetrahydrospiro[cyclobutane-1,3′-pyrido[1,2-a]pyrazine]-7′-carboxamide hydrochloride]: the EC50 under setting [1] came out at 5.1 nM. In the case of `CCN1C[C@@]2(C[C@@H]2C(=O)O)n2cc(C(=O)NCc3ccc(F)cc3F)c(=O)c(O)c2C1=O` [Example T7, (1S,2S)-7′-(2,4-difluorobenzylcarbamoyl)-2′-ethyl-9′-hydroxy-1′,8′-dioxo-1′,2′,3′,8′-tetrahydrospiro[cyclopropane-1,4′-pyrido[1,2-a]pyrazine]-2-carboxylic acid hydrochloride], the EC50 under setting [1] came to 15 nM. Take `CCN1C(=O)c2c(O)c(=O)c(C(=O)NCc3ccc(OC)c(Cl)c3F)cn2C[C@@]12C[C@@H]2CO` [Example T48, (1S,2S)-N-(3-chloro-2-fluoro-4-methoxybenzyl)-2′-ethyl-9′-hydroxy-2-(hydroxymethyl)-1′,8′-dioxo-1′,2′,4′,8′-tetrahydrospiro[cyclopropane-1,3′-pyrido[1,2-a]pyrazine]-7′-carboxamide hydrochloride]: the 50% effective concentration (EC50) (read-out: antiviral activity (EC50), MT-4 cells infected with HIV-1 NL4-3 strain (MOI 0.05), cultured 5 days, Cell Titer-Glo) is 18 nM. `COC[C@H]1C[C@@]12CN(C)C(=O)c1c(O)c(=O)c(C(=O)NCc3cc(N4CCCC4=O)cc(Cl)c3F)cn12` [Example T34, (1S,2S)-N-(3-chloro-2-fluoro-5-(2-oxopyrrolidin-1-yl)benzyl)-9′-hydroxy-2-(methoxymethyl)-2′-methyl-1′,8′-dioxo-1′,2′,3′,8′-tetrahydrospiro[cyclopropane-1,4′-pyrido[1,2-a]pyrazine]-7′-carboxamide]: the EC50 under setting [1] was determined as 23 nM.

Regarding `CC(C)N1C[C@]2(C[C@H](CO)C2)n2cc(C(=O)NCc3ccc(F)cc3F)c(=O)c(O)c2C1=O` [Example S22, N-(2,4-difluorobenzyl)-9′-hydroxy-cis-3-(hydroxymethyl)-2′-isopropyl-1′,8′-dioxo-1′,2′,3′,8′-tetrahydrospiro[cyclobutane-1,4′-pyrido[1,2-a]pyrazine]-7′-carboxamide hydrobromide], the EC50 under setting [1] is 5 nM. For `COC[C@H]1C[C@]2(CN(C)C(=O)c3c(OC(=O)c4ccccc4)c(=O)c(C(=O)NCc4cccc(Cl)c4F)cn32)C1` [Example S70, 7′-(3-chloro-2-fluorobenzylcarbamoyl)-cis-3-(methoxymethyl)-2′-methyl-1′,8′-dioxo-1′,2′,3′,8′-tetrahydrospiro[cyclobutane-1,4′-pyrido[1,2-a]pyrazin]-9′-yl benzoate], the EC50 under setting [1] is 1.4 nM. Take `CN1C[C@]2(C[C@@H](O)C2)n2cc(C(=O)NCc3cccc(Cl)c3F)c(=O)c(O)c2C1=O` [Example S26, N-(3-chloro-2-fluorobenzyl)- trans-3,9′-dihydroxy-2′-methyl-1′,8′-dioxo-1′,2′,3′,8′-tetrahydrospiro[cyclobutane-1,4′-pyrido[1,2-a]pyrazine]-7′-carboxamide hydrochloride]: the EC50 under setting [1] was 3.4 nM. Regarding `COC[C@H]1C[C@]2(CN(C)C(=O)c3c(O)c(=O)c(C(=O)NCc4cccc(Cl)c4F)cn32)C1` [Example 29, Monopotassium 7′-(3-chloro-2-fluorobenzylcarbamoyl)-cis-3-(methoxymethyl)-2′-methyl-1′,8′-dioxo-1′,2′,3′,8′-tetrahydrospiro[cyclobutane-1,4′-pyrido[1,2-a]pyrazin]-9′-olate], the EC50 (read-out: antiviral activity (EC50)) was determined as 2.5 nM.
